Source: patent US12060368B2, “Selenophenochromene hydroxamic acids, preparation and use as angiogenesis inhibitors” (Latvian Institute of Organic Synthesis, priority 2018, dated 2024)
Where a name gives a salt, the structure may show the parent alone.

Experiments:
[1] = target: T1, MMP 1 (Homo sapiens, UniProt P03956); test: MMP Inhibitor Fluorimetric Profiling kit, MMP 1; format: biochemical; conditions: for IC50: read-out: MMP 1 inhibition IC50; for inhibition at 20 µM: test compound 20 μM
T1 construct: recombinant human MMP-1-10, 12, 13 and 14 catalytic domains; purchased Biornol, USA
T1 sequence (P03956 98-276 limits assumed): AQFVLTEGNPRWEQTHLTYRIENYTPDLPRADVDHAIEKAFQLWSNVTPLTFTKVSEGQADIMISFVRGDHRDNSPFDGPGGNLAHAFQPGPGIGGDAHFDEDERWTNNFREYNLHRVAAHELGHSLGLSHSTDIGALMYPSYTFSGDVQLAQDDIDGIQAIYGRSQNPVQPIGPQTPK
Method: (§1) Inhibition of matrix metalloproteinase enzymes by synthesized selenopheno[3,2-h]chromenes I-1-I-4 was detected on MMP Inhibitor Fluorimetric Profiling kit using NNGH (N-isobutyl-N-4-methoxyphenylsulfonyl)glycyl-hydroxamic acid) as a standard.
(§2) MMP assay: Inhibitors of matrix metalloproteinase enzymes were detected with the use of MMP Inhibitor Fluorimetric Profiling kit (Biornol, USA) accordingly to manufacturer's instructions. MMP activity assays were performed in 96-well plates using the recombinant human MMP-1-10, 12, 13 and 14 catalytic domains and OmniMMP™ fluorogenic substrate SEQ ID No 1: Mca-Pro-Leu-Gly-Leu-Dpa-Ala-Arg-NH2. The test compounds (20 μM) were dissolved in DMSO. The compound NNGH (N-isobutyl-N-(4-methoxyphenylsulfonyl)-glycylhydroxamic acid) was used as a prototypic control inhibitor. The rate of substrate hydrolysis was determined by fluorescence intensity measuring for 10 minutes at 37° C. temperature using a fluorescence plate reader (Tecan infinite M1000, Austria) with excitation at 328 nm and emission at 420 nm. Data analysis was performed using program Graph Pad Prism® 3.0.

[2] = target: T2, MMP 2 (Homo sapiens, UniProt P08253); test: MMP Inhibitor Fluorimetric Profiling kit, MMP 2; format: biochemical; conditions: for IC50: read-out: MMP 2 inhibition IC50; for inhibition at 20 µM: test compound 20 μM
T2 construct: recombinant human MMP-1-10, 12, 13 and 14 catalytic domains; purchased Biornol, USA
Method: as §1, §2

[3] = target: T3, MMP 3 (Homo sapiens, UniProt P08254); test: MMP Inhibitor Fluorimetric Profiling kit, MMP 3; format: biochemical; conditions: for IC50: ne = no effect, read-out: MMP 3 inhibition IC50; for inhibition at 20 µM: test compound 20 μM
T3 construct: recombinant human MMP-1-10, 12, 13 and 14 catalytic domains; purchased Biornol, USA
Method: as §1, §2

[4] = target: T4, MMP 7 (Homo sapiens, UniProt P09237); test: MMP Inhibitor Fluorimetric Profiling kit, MMP 7; format: biochemical; conditions: for inhibition at 20 µM: test compound 20 μM
T4 construct: recombinant human MMP-1-10, 12, 13 and 14 catalytic domains; purchased Biornol, USA
T4 sequence (P09237 95-267): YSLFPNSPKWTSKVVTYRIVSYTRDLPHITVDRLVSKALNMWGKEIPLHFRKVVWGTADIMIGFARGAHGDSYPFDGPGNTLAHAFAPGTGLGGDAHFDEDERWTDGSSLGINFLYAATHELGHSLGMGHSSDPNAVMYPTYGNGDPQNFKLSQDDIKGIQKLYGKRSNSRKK
Method: as §1, §2

[5] = target: T5, MMP 8 (Homo sapiens, UniProt P22894); test: MMP Inhibitor Fluorimetric Profiling kit, MMP 8; format: biochemical; conditions: for IC50: read-out: MMP 8 inhibition IC50; for inhibition at 20 µM: test compound 20 μM
T5 construct: recombinant human MMP-1-10, 12, 13 and 14 catalytic domains; purchased Biornol, USA
Method: as §1, §2

[6] = target: T6, MMP 9 (Homo sapiens, UniProt P14780); test: MMP Inhibitor Fluorimetric Profiling kit, MMP 9; format: biochemical; conditions: for IC50: read-out: MMP 9 inhibition IC50; for inhibition at 20 µM: test compound 20 μM
T6 construct: recombinant human MMP-1-10, 12, 13 and 14 catalytic domains; purchased Biornol, USA
Method: as §1, §2

[7] = target: T7, MMP 10 (stromelysin 2) (Homo sapiens, UniProt P09238); test: MMP Inhibitor Fluorimetric Profiling kit, MMP 10; format: biochemical; conditions: for IC50: read-out: MMP 10 inhibition IC50; for inhibition at 20 µM: test compound 20 μM
T7 construct: recombinant human MMP-1-10, 12, 13 and 14 catalytic domains; purchased Biornol, USA
Method: as §1, §2

[8] = target: T8, MMP 12 (Homo sapiens, UniProt P39900); test: MMP Inhibitor Fluorimetric Profiling kit, MMP 12; format: biochemical; conditions: for MMP 12 inhibition IC50: ne = no effect; for inhibition at 20 µM: test compound 20 μM
T8 construct: recombinant human MMP-1-10, 12, 13 and 14 catalytic domains; purchased Biornol, USA
Method: as §1, §2

[9] = target: T9, MMP 13 (Homo sapiens, UniProt P45452); test: MMP Inhibitor Fluorimetric Profiling kit, MMP 13; format: biochemical; conditions: for IC50 / MMP 13 inhibition IC50: ne = no effect; for IC50: read-out: MMP 13 inhibition IC50; for inhibition at 20 µM: test compound 20 μM
T9 construct: recombinant human MMP-1-10, 12, 13 and 14 catalytic domains; purchased Biornol, USA
Method: as §1, §2

[10] = target: T10, MMP 14 (Homo sapiens, UniProt P50281); test: MMP Inhibitor Fluorimetric Profiling kit, MMP 14; format: biochemical; conditions: for IC50: read-out: MMP 14 inhibition IC50; for inhibition at 20 µM: test compound 20 μM
T10 construct: recombinant human MMP-1-10, 12, 13 and 14 catalytic domains; purchased Biornol, USA
Method: as §1, §2

T2 sequence (P08253 110-446 limits assumed): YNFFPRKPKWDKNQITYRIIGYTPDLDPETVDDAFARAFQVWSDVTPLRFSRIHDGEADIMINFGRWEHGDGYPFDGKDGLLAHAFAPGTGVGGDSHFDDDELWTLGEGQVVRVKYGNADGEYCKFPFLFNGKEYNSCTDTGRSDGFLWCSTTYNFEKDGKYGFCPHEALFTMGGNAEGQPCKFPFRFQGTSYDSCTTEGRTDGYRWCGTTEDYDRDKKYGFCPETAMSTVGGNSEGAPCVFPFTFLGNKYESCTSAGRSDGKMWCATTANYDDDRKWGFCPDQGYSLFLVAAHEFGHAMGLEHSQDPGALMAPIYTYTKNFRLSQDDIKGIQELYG
T3 sequence (P08254 100-272 limits assumed): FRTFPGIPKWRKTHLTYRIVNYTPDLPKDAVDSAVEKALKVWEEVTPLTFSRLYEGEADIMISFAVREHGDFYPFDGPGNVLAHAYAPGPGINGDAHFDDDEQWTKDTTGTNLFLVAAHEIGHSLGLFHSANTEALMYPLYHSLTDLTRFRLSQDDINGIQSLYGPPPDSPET
T6 sequence (P14780 107-444 limits assumed): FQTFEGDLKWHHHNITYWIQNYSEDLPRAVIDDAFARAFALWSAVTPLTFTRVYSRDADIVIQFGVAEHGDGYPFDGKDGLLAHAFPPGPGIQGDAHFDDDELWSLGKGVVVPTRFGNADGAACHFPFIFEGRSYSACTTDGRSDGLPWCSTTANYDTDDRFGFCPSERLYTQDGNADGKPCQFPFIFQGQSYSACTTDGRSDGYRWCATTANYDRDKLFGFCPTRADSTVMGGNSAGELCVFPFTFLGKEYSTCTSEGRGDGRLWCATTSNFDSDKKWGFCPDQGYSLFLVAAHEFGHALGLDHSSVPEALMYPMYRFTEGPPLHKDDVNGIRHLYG
T7 sequence (P09238 99-263 limits assumed): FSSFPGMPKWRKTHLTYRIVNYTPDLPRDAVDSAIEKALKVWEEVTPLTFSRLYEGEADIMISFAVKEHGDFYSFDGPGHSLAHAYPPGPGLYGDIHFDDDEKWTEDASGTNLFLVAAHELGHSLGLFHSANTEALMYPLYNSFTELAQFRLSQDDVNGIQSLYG
T5 sequence (P22894 100-262 limits assumed): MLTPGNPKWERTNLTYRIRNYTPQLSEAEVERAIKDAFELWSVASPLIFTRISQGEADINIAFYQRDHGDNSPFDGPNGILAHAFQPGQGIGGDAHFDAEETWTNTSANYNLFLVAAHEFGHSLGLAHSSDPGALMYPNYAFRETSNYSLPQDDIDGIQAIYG
T8 sequence (P39900 106-263 limits assumed): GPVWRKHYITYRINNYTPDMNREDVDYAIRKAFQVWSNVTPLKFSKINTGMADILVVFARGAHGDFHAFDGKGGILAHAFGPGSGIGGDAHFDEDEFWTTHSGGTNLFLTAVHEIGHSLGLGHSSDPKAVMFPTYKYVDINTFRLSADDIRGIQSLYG

| SMILES | IC50 ([1]; ne = no effect) [µM] | inhibition at 20 µM [1] [%] | IC50 ([2]; ne = no effect) [µM] | inhibition at 20 µM [2] [%] | IC50 [3] [µM] | inhibition at 20 µM [3] [%] | MMP 7 inhibition IC50 ([4]; ne = no effect) | inhibition at 20 µM [4] [%] | IC50 ([5]; ne = no effect) [µM] | inhibition at 20 µM [5] [%] | IC50 ([6]; ne = no effect) [µM] | inhibition at 20 µM [6] [%] | IC50 ([7]; ne = no effect) [µM] | inhibition at 20 µM [7] [%] | MMP 12 inhibition IC50 [8] | inhibition at 20 µM [8] [%] | IC50 [9] [µM] | inhibition at 20 µM [9] [%] | IC50 ([10]; ne = no effect) [µM] | inhibition at 20 µM [10] [%] | other results |
| --- | --- | --- | --- | --- | --- | --- | --- | --- | --- | --- | --- | --- | --- | --- | --- | --- | --- | --- | --- | --- | --- |
| O=C(NO)c1cc2ccc3c(Br)c(CCN4CCNCC4)[se]c3c2oc1=O [Compound I-3, 7-Bromo-N-hydroxy-2-oxo-8-(2-(piperazin-1-yl)ethyl)-2H-selenopheno[3,2-h]chromene-3-carboxamide hydrochloride] | 6.66 ± 0.85 | 94 ± 2 | 1.13 ± 0.08 | 100 ± 1 | > 20 | 35 ± 5 | ne | 20 ± 3 | 1.61 ± 0.14 | 100 ± 1 | 1.06 ± 0.07 | 99 ± 1 | 0.96 | 100 ± 1 | ne | 0 | 4.95 ± 1.05 | 97 ± 4 | 3.88 ± 0.99 | 99 ± 4 | – |
| O=C(NO)c1cc2ccc3c(Br)c(CN4CCNCC4)[se]c3c2oc1=O (as salt: hydrochloride) [Compound I-2, 7-Bromo-N-hydroxy-2-oxo-8-(piperazin-1-ylmethyl)-2H-selenopheno[3,2-h]chromene-3-carboxamide hydrochloride] | – | – | – | – | – | – | – | – | – | – | – | – | – | – | – | – | – | – | – | – | melting point: > 200 °C |
| CN1CCN(Cc2[se]c3c(ccc4cc(C(=O)NO)c(=O)oc43)c2Br)CC1 (as salt: hydrochloride) [Compound I-1, 7-Bromo-N-hydroxy-8-((4-methylpiperazin-1-yl)methyl)-2-oxo-2H-selenopheno[3,2-h]chromene-3-carboxamide hydrochloride] | – | – | – | – | – | – | – | – | – | – | – | – | – | – | – | – | – | – | – | – | melting point: > 200 °C |
| O=C(NO)c1cc2ccc3c(Br)c(CN4CCNCC4)[se]c3c2oc1=O [Compound I-2, 7-Bromo-N-hydroxy-2-oxo-8-(piperazin-1-ylmethyl)-2H-selenopheno[3,2-h]chromene-3-carboxamide hydrochloride] | 5.93 ± 0.54 | 94 ± 1 | 1.57 ± 0.18 | 98 ± 1 | > 20 | 31 ± 7 | ne | 20 ± 1 | 1.64 ± 0.25 | 100 ± 1 | 1.48 ± 0.11 | 100 ± 1 | 1.37 ± 0.85 | 99 | ne | 5 ± 1 | 6.27 ± 0.65 | 98 ± 1 | 4.35 ± 1.02 | 98 ± 2 | MMP 1 inhibition IC50 ([1]; ne = no effect): 1.37+6.27 μM; MMP 2 inhibition IC50 ([2]; ne = no effect): 1.37+6.27 μM; MMP 8 inhibition IC50 ([5]; ne = no effect): 1.37+6.27 μM; MMP 9 inhibition IC50 ([6]; ne = no effect): 1.37+6.27 μM; MMP 10 inhibition IC50 ([7]; ne = no effect): 1.37+6.27 μM; MMP 13 inhibition IC50 [9]: 1.37+6.27 μM; MMP 14 inhibition IC50 ([10]; ne = no effect): 1.37+6.27 μM |
| O=C(NO)c1cc2ccc3c(Br)c(CCN4CCNCC4)[se]c3c2oc1=O (as salt: hydrochloride) [Compound I-3, 7-Bromo-N-hydroxy-2-oxo-8-(2-(piperazin-1-yl)ethyl)-2H-selenopheno[3,2-h]chromene-3-carboxamide hydrochloride] | – | – | – | – | – | – | – | – | – | – | – | – | – | – | – | – | – | – | – | – | melting point: > 200 °C |
| O=C(NO)c1cc2ccc3c(Br)c(CN4CCCNCC4)[se]c3c2oc1=O [Compound I-4, 8-((1,4-Diazepan-1-yl)methyl)-7-bromo-N-hydroxy-2-oxo-2H-selenopheno[3,2-h]chromene-3-carboxamide hydrochloride] | 5.21 ± 0.62 | 99 ± 8 | 1.86 ± 0.21 | 99 ± 6 | > 20 | 34 ± 8 | ne | 16 ± 3 | 1.86 ± 0.22 | 100 ± 9 | 1.92 ± 0.31 | 99 ± 6 | 1.71 ± 0.18 | 99 ± 8 | ne | 7 ± 3 | 4.74 ± 0.95 | 95 ± 8 | 4.04 ± 0.97 | 99 ± 7 | – |
| COc1ccc(S(=O)(=O)N(CC(=O)NO)CC(C)C)cc1 [NNGH, N-isobutyl-N-(4-methoxyphenylsulfonyl)-glycylhydroxamic acid, reference compound] | – | – | – | – | – | – | – | – | – | – | – | – | – | – | – | – | – | – | – | – | MMP 1 inhibition ([1]; control inhibitor 1.3 μM): 100%; MMP 2 inhibition ([2]; control inhibitor 1.3 μM): 100%; MMP 3 inhibition ([3]; control inhibitor 1.3 μM): 100%; MMP 7 inhibition ([4]; control inhibitor 1.3 μM): 7.2%; MMP 8 inhibition ([5]; control inhibitor 1.3 μM): 100%; MMP 9 inhibition ([6]; control inhibitor 1.3 μM): 100%; MMP 10 inhibition ([7]; control inhibitor 1.3 μM): 100%; MMP 12 inhibition ([8]; control inhibitor 1.3 μM): 100%; MMP 13 inhibition ([9]; control inhibitor 1.3 μM): 100%; MMP 14 inhibition ([10]; control inhibitor 1.3 μM): 100% |
| CN1CCN(Cc2[se]c3c(ccc4cc(C(=O)NO)c(=O)oc43)c2Br)CC1 [Compound I-1, 7-Bromo-N-hydroxy-8-((4-methylpiperazin-1-yl)methyl)-2-oxo-2H-selenopheno[3,2-h]chromene-3-carboxamide hydrochloride] | > 20 | 29 ± 2 | 20 | 51 ± 2 | > 20 | 34 ± 2 | – | 28 ± 2 | 20 | 56 ± 2 | > 20 | 35 ± 5 | 1.92 | ≤ 97 | ne | 0 | – | 0 | 18 ± 2 | 58 ± 2 | IC50 ([4]; ne = no effect, read-out: MMP 7 inhibition IC50): > 20 µM; MMP 13 inhibition IC50 [9]: ne |
